Laboratory results taken from US7816321B2, “Thymosin β4 derivatives and use thereof” (Beijing Northland Biotech. Co., Ltd., priority 2005, dated 2010).
“And” between values parts separate entries of the source, which are not always exact repeats. Equal entries are not always repeated.

Experiments:
Type in all cases: in vivo
[1] = test system: rat left anterior descending branch coronary artery reperfusion models (acute myocardial infarction); assay: Rat heart ischemia model: thickness of anterior left ventricular wall by ultrasonic cardiogram; conditions: for thickness of anterior left ventricular wall: 10 μg/rat/day intraperitoneal injection
Method: (§1) Rats were administrated with xylazine 5 mg/kg by intramuscular injection; anesthetized with ketamine 50 mg/kg, and rat anterior chest wall was disinfected with iodine tincture and alcohol; after completely dry, a sterile operation towel was put on, the operative site was exposed, and the operation was conducted under complete aseptic condition. The skin of rat anterior chest wall was incised, and the 3rd to the 6th ribs were cut to expose thoracic cavity, the lung was pushed aside, the heart vesicle was opened to expose the heart. Blood vessel from the origin of left anterior descending branch coronary artery to 3 mm was ligated with 6-0 polypropylene ligature wire and NELATION, and the reperfusion was conducted 1 hour later. After non-hemorrhage was confirmed, the excised ribs were sutured with sternum, and then skin was sutured. After operation, the rats were administrated with 3 mg/kg/day gentamicin for 3 days by intramuscular injection for prevention of infection.
3. Comparison of Degree of Heart Ventricle Fibrosis by Using Histological Pictures

[2] = test system: rat left anterior descending branch coronary artery reperfusion models (acute myocardial infarction); assay: Rat heart ischemia model: degree of heart ventricle fibrosis by histological pictures (Masson's trichrome); conditions: 56th day after administration; 10 μg/rat/day intraperitoneal injection
Method: as §1

[3] = test system: rat epidermis lesion models; assay: Rat epidermis lesion model: wound length by computer image analysis (smearing on epidermis)
Method: 30 adult rats were cut on their epidermis to obtain rat epidermis lesion model.
(§2) Rats were administrated with xylazine 5 mg/kg by intramuscular injection; anesthetized with ketamine 50 mg/kg, and rat posterior skin was disinfected with iodine tincture and alcohol; after completely dry, a sterile operation towel was put on, the operative site was exposed, and the operation was conducted under complete aseptic condition. The rat posterior skin was incised to form 3 cm incision.

[4] = test system: rat epidermis lesion models; assay: Rat epidermis lesion model: wound healing observation after topical administration by nebulizer
Method: as §2

[5] = test system: rat cornea alkali burn models; assay: Rat cornea alkali burn model: recovery of corneal epithelium by image analysis
From the text: The corneas of 30 adult rats were burned with 1N NaOH to obtain rat corneal lesion models.
After 4 days, eyeballs were exenterated, fixed with 10% formaldehyde, embedded with paraffin and continuously sectioned along pupil optic nerve plane, the obtained sections were used for collection and analysis of recovery of corneal epithelium by image analysis system.

[6] = test system: rabbit cornea alkali burn models; assay: Rabbit cornea alkali burn model: recovery of corneal epithelium; conditions: 5th day; 500 μg/ml eyedrops, 4 times per day
From the text: Eyeballs were exenterated separately after 1 and 5 days, fixed with 10% formaldehyde, embedded with paraffin, and continuously sectioned along pupil optic nerve plane, the obtained sections were stained and used for collection and analysis of recovery of corneal epithelium by image analysis system.

[7] = test system: rat models with left anterior descending branch coronary artery ligation and reperfusion; assay: Rat coronary artery ligation and reperfusion model: cell death and heart function (summary); conditions: continuous injection for one month
Method: 60 adult rats were subjected to coronary artery deligation to imitate the onset of heart disease and to obtain rat models with left anterior descending branch coronary artery ligation and reperfusion.
as §1

[8] = 100 μg/ml, topical by nebulizer, 4 times per day

In the case of “Tβ4: Native thymosin β4, polypeptide with 43 amino acids as shown in SEQ ID NO:1; positive control (SDKPDMAEIEKFDKSKLKKTETQEKNPLPSKETIEQEKQAGES; listed as Homo sapiens)”, the “thickness of anterior left ventricular wall, basal value” ([1]; 0th day, before administration, rat heart ischemia model) is reported as 0.2378±0.018, the “thickness of anterior left ventricular wall” value ([1]; 14th day after administration) is reported as 0.1919±0.012 and 0.1215±0.013 and the “thickness of anterior left ventricular wall” value ([1]; 28th day after administration) is reported as 0.1233±0.0071. For the same substance, the “thickness of anterior left ventricular wall” value ([1]; 56th day after administration) was 0.1232±0.0057, the “ratio of fibrosis part of myocardium based on total myocardium of left ventricle” value [2] was 23.15±2.9% and 22.91±2.3% and the “wound length, basal value” ([3]; 0th day, before administration, 3 cm incision of posterior skin) was 3.07±0.18. For the same substance, the wound length ([3]; 5th day, smeared on epidermis 4 times per day, 5 μg/day) was 1.62±0.13, the “length of wounds smaller than the blank control” value ([3]; smeared for 5 days, 30 adult rats) was 50% and the wound healing time [4, 8] was 5.8 ± 0.91 days. The “wound inflammatory reaction (severity)” value [4, 8] was “relatively slight inflammatory reactions”, the “wound inflammatory reaction, time persisted” value [4, 8] was 1 to 2 days and the scar appearance ([4]; two weeks after administration, 100 μg/ml by nebulizer) was “relatively fine linear scars with relatively smooth surface”. For the same substance, the scar size ([4]; two weeks after administration, 100 μg/ml by nebulizer, 4 times per day) was 1.9±0.23 cm, the “recovery of corneal epithelium (image analysis), basal value” ([5]; 0th day, before administration, 1N caustic soda burn) was 4.76±0.18 and the “recovery of corneal epithelium (image analysis)” value ([5]; 4th day after administration, eyedrops 30 μl/rat, 4 times per day) was 7.03±0.13. For the same substance, the “recovery of injured corneas” value ([5]; dropped in eyes for 4 days, corneas burned with 1N NaOH) was “recovered completely”, the “layers of epithelial cells appeared” value [6] was 1-2 layers and the “recovery condition of corneal epithelium” value [6] was “all injured corneal epithelial cells were recovered and became normal”. The “cell death in the injured rat heart” value [7] was “Limited cells died” and the heart functions ([7]; several weeks after the onset of heart disease) was “heart functions were improved”.
